Data on 103 molecules can be found in PubChem BioAssay AID488890 (Southern Research Specialized Biocontainment Screening …, 2010).

pIC50: −log10 of the molar value. Results filed as inconclusive are left out. The source made the active and inactive calls. The rule behind the calls is not given here.

The assay deals with Mycobacterium tuberculosis non-replicating, growth inhibition. Description: growth inhibition of non-replicating M. tuberculosis (AID 488890).
Usually pIC50 stands for −log10 of the IC50, conventionally taken in molar units. With `CC(C)COc1ccc(C(=O)CCN2CCCCC2)cc1`, the pIC50 is 5.01. For `Cc1cc(O)c(-c2cc(O)c(C)cc2O)cc1O`, the negative-log IC50 (pIC50) is 5.60. Usually IC50 stands for the concentration that inhibits the measured activity by half. Regarding `CN(C)S(=O)(=O)Oc1ccc(C(=O)Nc2cccc(C(F)(F)F)c2)cc1`, the IC50 is 13.5 µM (inactive). With `CC1=NN(C(=O)c2ccc(Cn3nc(C)c(Br)c3C)cc2)C(O)(C(F)(F)F)C1` (stereo not drawn), the pIC50 was 6.24.

On to `O=C(CCSc1nnc(-c2ccncc2)o1)Nc1cccc(Cl)c1`, for which the IC50 is 20.3 µM (inactive).

Consider `O=C(CNC(=O)c1ccccc1Cl)N/N=C/c1ccc([N+](=O)[O-])s1`, for which the IC50 was 23.5 µM (inactive).

Regarding `Cc1ccc2cc3c(nc2c1)OCC3`, the pIC50 is 5.17.

For the molecule `O=c1c2cc(Cl)ccc2oc2nc3n(c(=O)c12)CCCS3`, the pIC50 is 5.52. `COc1cc(Cl)cc(/C=N/NC(N)=O)c1O`: the IC50 is 10.2 µM (inactive). For `Cc1cccc(NC(=O)CO/N=C/c2ccc3c(c2)OCO3)c1`, the IC50 is 10.2 µM (inactive). As for `CCCNC1=C(N(C(C)=O)c2cccc(F)c2)C(=O)c2ccccc2C1=O`, the negative-log IC50 (pIC50) is 5.23. On the same count and under the same terms, then `CN1CCC(O)(c2ccc(Cl)cc2)C(C(=O)c2ccc(Cl)cc2)C1` (stereo not drawn), with 5.71; and `CCOc1cc(-c2sc(Nc3cc(C)ccc3OC)n[n+]2-c2ccccc2)ccc1OC`, with 5.37; and `Cc1cccc(NC(=O)c2n[nH]c([N+](=O)[O-])c2Br)c1C`, with 5.10.

`Clc1ccc(N=c2ssnc2Cl)nc1`: the negative-log IC50 (pIC50) was 5.46. As to `O=C(/C=C/Nc1ccccc1O)c1ccco1`, the pIC50 is 5.69. As for `O=C(COc1ccc(Cl)cc1)OCC(=O)N1CCCc2ccccc21`, the IC50 was 12.9 µM (inactive). As to `O=C(N/N=C/c1cc(Br)cc(Cl)c1O)c1ccc2c(c1)OCO2`, the pIC50 was over 7.00.

Turning to `Cc1ccc(-c2nnc(-c3ccccc3)o2)cc1`, the pIC50 is 5.77. As for `CCOc1ccc2ccccc2c1/C=N/NC(=O)c1ccncc1`, the pIC50 is 6.24.

Turning to `COc1ccc(NC(=O)Nc2ccc(O)c3ccccc23)cc1`, the pIC50 is 5.43. With `CC1(C(=O)NC(=S)NNC(=O)c2ccncc2)CCCCC1`, the negative logarithm of the IC50 (pIC50) is 6.03. Regarding `Oc1ccccc1/C=N/Nc1nc2ccccc2o1`, the negative-log IC50 (pIC50) was 6.72. As for `c1ccc(OCc2nn3c(-c4ccccn4)nnc3s2)cc1`, the IC50 was 23 µM (inactive).

Consider `O=C(COC(=O)CC1CCCC1)Nc1ccc(Cl)cn1`, for which the IC50 is 17.2 µM (inactive).

Take `CC(=O)Nc1nc2ccccc2n1Cc1ccc(C)cc1`: the pIC50 is 5.49. In the case of `CCCCCCCCCCn1ccc(=N)cc1`, the IC50 was 14.5 µM (inactive).

Regarding `C/C(=N/NC(=O)c1cc2ccccc2cc1O)C1C(=O)c2ccccc2C1=O`, the pIC50 is 5.91. The same measure, in the same setting: then `O=C(NC1CC2CCC1C2)C1COc2ccccc2O1` (stereo not drawn), with over 7.00. Regarding `Cc1c(Cl)cccc1NC(=O)C1COc2ccccc2O1` (stereo not drawn), the IC50 is 12.1 µM (inactive). Consider `O=C(Nc1ccccc1)c1ccc(Br)o1`, for which the IC50 is 14 µM (inactive). As to `CCCCCCNC(=O)c1ccc(Br)o1`, the pIC50 was over 7.00. For `O=C(C/C=N\OCc1ccc([N+](=O)[O-])cc1)Nc1ccc(F)cc1F`, the negative logarithm of the IC50 (pIC50) is 5.04. On the same count and under the same terms, then `Cc1ccc(NC(=O)COC(=O)CCc2c[nH]c3ccccc23)cc1[N+](=O)[O-]`, with 5.32; and `O=[N+]([O-])c1cc(Cl)cc(/C=N\Nc2ccccn2)c1O`, with 5.93. Same read-out and setting: then `CCOC(=O)c1ccc(N=C(CC)c2c(O)n(C)c(=O)n(C)c2=O)cc1`, with 5.08; and `Cc1cccc(Cc2cnc(NC(=O)C3=NCCN3)s2)c1`, with 5.32.

Take `O=C(Nc1nnc(-c2ccco2)o1)c1cccc2ccccc12`: the IC50 is 19.1 µM (inactive). Turning to `CCOC(=O)c1cc(-c2csc(COc3ccccc3Cl)n2)on1`, the negative-log IC50 (pIC50) was over 7.00. Still for that read-out and setting: then `CCOC(=O)Cc1c(C)nc2c(-c3ccc(Cl)cc3)c[nH]n2c1=O`, with 5.41. Turning to `C/C(=N/Nc1ccnc2cc(Cl)ccc12)c1ccc(N)cc1`, the IC50 was 21.6 µM (inactive). Consider `O=C(NCc1ccc(F)cc1)c1ccc(Br)o1`, for which the negative-log IC50 (pIC50) is 6.29. Regarding `O=C(OCc1ccc([N+](=O)[O-])cc1)c1ccc2ccccc2n1`, the pIC50 is 5.35. Turning to `Cc1cc(C(=O)N/N=C/c2ccc([N+](=O)[O-])o2)c(C)o1`, the pIC50 was 5.26. For the molecule `O=C(CCS(=O)(=O)c1ccccc1)Nc1nnc(-c2ccco2)o1`, the negative logarithm of the IC50 (pIC50) is 5.11. As to `CC(C)C1O/C(=N/C(=O)Nc2ccc(Cl)c(Cl)c2)NC1=O` (stereo not drawn), the pIC50 was 5.32. With `Cc1ccc(NC(CC(=O)c2ccccc2)C(=O)O)cc1Cl` (stereo not drawn), the pIC50 is 5.08.

For the molecule `CCN(CC)S(=O)(=O)c1ccc(C(=O)OCn2nnc3ccccc3c2=O)cc1`, the IC50 is 15.4 µM (inactive). On to `O=c1c(=Nc2ccccc2O)c(=O)c2ccccc12`, for which the negative-log IC50 (pIC50) is 5.56. In the case of `CCOC(=O)c1ccsc1NC(=O)CCS(=O)(=O)c1ccccc1`, the IC50 was 33.8 µM (inactive). As for `COc1cccc(CN2CCC(N(CCc3ccccc3)Cc3ccccc3)CC2)c1OC`, the IC50 was 14.3 µM (inactive). For the molecule `COc1ccccc1NC(=O)CCN1CCN(c2ccc(Cl)cc2)CC1`, the IC50 is 24.2 µM (inactive). Regarding `Clc1ccc(CN2C3=NCCCN3c3ccccc32)cc1`, the IC50 is 12.3 µM (inactive). As to `CC1(C)OC(c2ccccc2)=C/C(=C\C=N\NC(=O)c2ccncc2)O1`, the pIC50 is 5.76. As to `Cc1ccc(S(=O)(=O)Nc2cccc3ncccc23)s1`, the pIC50 was 5.27. For `CC(C)CN1C(=O)/C(=C(/C#N)C(=O)NC2CCCCC2)c2ccccc21`, the IC50 is 25.9 µM (inactive).

Take `O=c1oc2ccccc2c2c1nc(C(F)(F)F)n2-c1ccccc1`: the pIC50 is 5.70. Turning to `COc1ccc(CC(=O)OCC(=O)Nc2ccc(Br)cc2)cc1`, the IC50 is 14.6 µM (inactive). Take `CC(=O)N(c1nnc(-c2ccc(C)cc2)s1)C1CCCC1`: the IC50 was 26.2 µM (inactive).

For the molecule `CNC(=O)COC(=O)c1ccc(-c2nc3ccccc3s2)s1`, the negative logarithm of the IC50 (pIC50) was 5.30.

Regarding `Cc1cc(N/N=C/c2ccc(O)cc2O)nc(-n2nc(C)cc2C)n1`, the pIC50 was 6.11. `CC(C)Cn1c(=O)c(C(=O)Nc2ccncc2)c(O)c2ccccc21`: the pIC50 was 5.54. Regarding `CCCc1nnc(NC(=O)c2cc3ccccc3oc2=O)s1`, the pIC50 is 5.63. `O=[N+]([O-])c1ccc(CN2CCN(c3ccc(F)cc3)CC2)o1`: the pIC50 is 6.35.

Take `CCCOc1ccc(-c2nc(C#N)c(NCCCn3ccnc3)o2)cc1`: the IC50 is 17 µM (inactive). For the molecule `CC1CCN(C(=O)c2ccc(-c3ccccc3Cl)o2)CC1`, the pIC50 was 5.27. For `COc1ccccc1-c1cc(SC)c(C#N)c(=O)o1`, the IC50 was 14.2 µM (inactive). Regarding `CCn1cc(C(=O)NC(C)C23CC4CC(CC(C4)C2)C3)cn1` (stereo not drawn), the pIC50 is 5.56.

With `Cc1cc(NC2CCCCC2)nc(NCc2ccccc2)n1`, the negative-log IC50 (pIC50) is 5.44. In the case of `CN(CCS(=O)(=O)c1ccc(Cl)cc1)Cc1cccnc1`, the IC50 is 13.2 µM (inactive). For `COc1ccc(-c2nnc(NC(=O)C3=COCCO3)o2)cc1`, the IC50 was 27.1 µM (inactive). On the same count and under the same terms, then `Cc1cc2nc(CSc3ccc(Cl)cc3)cc(=O)n2[nH]1`, with 14.8 µM (inactive). Take `CN(C)c1c2ccccc2nc2c(F)c(F)c(F)c(F)c12`: the negative-log IC50 (pIC50) is 5.24. Take `Cc1cc(C)c2ccc(/C=N/O)nc2c1O`: the pIC50 was 5.24. As for `Cc1cccc(OCC(=O)NNC(=O)c2cc3ccccc3oc2=O)c1`, the pIC50 was 5.21. For `O=C(N/N=C/c1ccc(Br)s1)c1ccncc1`, the pIC50 was 6.33. Turning to `O=C(Nc1ncc(Cc2ccccc2)s1)C1=NCCN1`, the pIC50 was 5.02.

As for `COc1ccc(C)c2sc(NC(=O)CCS(=O)(=O)c3ccccc3)nc12`, the negative logarithm of the IC50 (pIC50) was 5.22. `CCC(CC)COC(=O)C(C#N)c1nc2ccccc2nc1N1CCN(CC)CC1` (stereo not drawn): the IC50 was 15.4 µM (inactive).

Consider `C/C(=C\C(=O)c1ccc(Br)cc1)NNC(=O)c1ccccc1`, for which the pIC50 was 6.42. Regarding `C/C(=N/NC(=O)c1ccncc1)C1=C(O)CC(C)(C)CC1=O`, the IC50 was 13 µM (inactive). On the same count and under the same terms, then `CCOC(=O)Nc1cccc(OCC(=O)Nc2ccc(OC)cc2OC)c1`, with 16.5 µM (inactive). As for `C=CCNCC(=O)N1N=C(c2ccc3ccccc3c2)CC1c1ccc(OC)cc1` (stereo not drawn), the IC50 was 20.6 µM (inactive). With `COC(=O)CC(=O)N1CCN(c2ccc(Cl)c(Cl)c2)CC1`, the pIC50 was 5.24. Take `CC1=NN(C(=O)c2csc(C)c2C)C(O)(C(F)(F)F)C1` (stereo not drawn): the pIC50 is 6.40. The same measure, in the same setting: then `Cc1cc(C)n2[nH]c(=O)c(N=Nc3cccc(Cl)c3)c2n1`, with 5.38. On to `CCOc1ccc(NC(=O)COc2ccc3c(c2)OCO3)cc1`, for which the IC50 is 10.6 µM (inactive).

Turning to `Cc1nc(C)c(/C(O)=C/c2nc3ccccc3oc2=O)s1`, the negative-log IC50 (pIC50) is 5.97. As to `Cc1ccc(-n2c(C)cc(C3=NNC(=NC4CC4)SC3)c2C)cc1C`, the pIC50 is 5.15.

`Cc1cc(Cl)cc(C)c1OCCCCn1ccnc1`: the IC50 was 16.9 µM (inactive). For `Cc1ccc(-c2nnc(SCC#CCOC(=O)c3ccco3)o2)cc1`, the negative-log IC50 (pIC50) was 6.96. Regarding `S=C1CN=C(c2ccccc2)c2cc(Cl)ccc2N1`, the negative logarithm of the IC50 (pIC50) was 5.07. In the case of `O=C(N/N=C/c1ccc([N+](=O)[O-])s1)c1cccnc1`, the pIC50 was 5.35. Same read-out and setting: then `O=[N+]([O-])c1ccc(Nc2ccccc2)c2nonc12`, with 5.54.

Regarding `Cc1ccc2[nH]c(C)c(CCNC(=O)c3cc4cc([N+](=O)[O-])ccc4oc3=O)c2c1`, the negative-log IC50 (pIC50) is 5.04. As for `CCCc1cc(NCCCn2ccnc2)n2nc(C)c(-c3ccccc3)c2n1`, the IC50 was 19.5 µM (inactive). Regarding `O=C(CCNc1cccc(Cl)c1)c1cccs1`, the IC50 was 11 µM (inactive). In the case of `Cc1ccc(NCCC(=O)c2cccs2)cc1Cl`, the pIC50 is 5.45. Regarding `Cc1cc(OCC(=O)Nc2ccncc2)ccc1Br`, the negative-log IC50 (pIC50) is 5.46. As for `CCOC(=O)c1ccc(NC2OC(=O)c3ccccc32)cc1` (stereo not drawn), the negative logarithm of the IC50 (pIC50) was 5.40. With `COc1cccc(NC(=O)c2ccc(Cn3cc([N+](=O)[O-])cn3)o2)c1`, the pIC50 is 5.12. For the molecule `COc1ccc(-c2cc(O)cc(O)c2)cc1`, the pIC50 is 5.21. For the molecule `COc1ccc(/C=N/Nc2cc(C)nc(-n3nc(C)cc3C)n2)cc1`, the pIC50 is 5.49.
